From PubChem BioAssay AID651642 (Sanford-Burnham Center for Chemical Genomics, 2012) come the findings set out here.

Molecules are shown by their SMILES.

The subject of one assay is HL-1. Description: protection of cardiomyocytes from stress damage, SAR follow-up, cell-based, panel, H9c2 and HL-1, H2O2, 2-deoxyglucose, ATP luminescence (AID 651642).
The test system of a further assay is H9c2. The description is as above.
Where [1] appears, read: H9c2/HL-1 cardiomyocyte 2-deoxyglucose damage, mean of runs, with 2-deoxyglucose, mean IC50 across panel.
Setting [2] is: H9c2/HL-1 cardiomyocyte 2-deoxyglucose damage, run 1, with 2-deoxyglucose.
Where [3] appears, read: H9c2/HL-1 cardiomyocyte 2-deoxyglucose damage, run 2, with 2-deoxyglucose.
Setting [4] is: H9c2/HL-1 cardiomyocyte 2-deoxyglucose damage, run 3, with 2-deoxyglucose.
Setting [5] is: H9c2/HL-1 cardiomyocyte 2-deoxyglucose damage, run 4, with 2-deoxyglucose.
Where [6] appears, read: H9c2/HL-1 cardiomyocyte H2O2 oxidative damage, mean of runs, with H2O2, mean IC50 across panel.
The mark [7] stands for this setting: H9c2/HL-1 cardiomyocyte H2O2 oxidative damage, run 1, with H2O2.
The mark [8] stands for this setting: H9c2/HL-1 cardiomyocyte H2O2 oxidative damage, run 2, with H2O2.
Where [9] appears, read: H9c2/HL-1 cardiomyocyte H2O2 oxidative damage, run 3, with H2O2.
[10] abbreviates: H9c2/HL-1 cardiomyocyte H2O2 oxidative damage, run 4, with H2O2.

`COc1ccc2c(c1OC)C(=O)N1c3ccccc3C(=O)N(Cc3ccccc3F)C21` (stereo not given): the IC50 in the assay on HL-1 (setting [1]) was 7.16 µM; in the assay on HL-1 (setting [2]), 2.26 µM; in the assay on HL-1 (setting [3]) it was 2.31 µM; with HL-1 (setting [4]), 8.41 µM; in the assay with HL-1 (setting [5]), 15.7 µM; with HL-1 (setting [6]) it was > 79 µM. Also, the IC50 in the assay with HL-1 (setting [7]) was > 79 µM; with HL-1 (setting [8]), > 79 µM; in the assay on HL-1 (setting [9]), > 79 µM; in the assay on HL-1 (setting [10]), > 79 µM; in the assay on H9c2 (setting [1]), 34.3 µM; in the assay with H9c2 (setting [2]) it was 36.6 µM. Moreover, the 50% inhibitory concentration (IC50) was 37.9 µM with H9c2 (setting [3]); 31.3 µM with H9c2 (setting [4]); 31.6 µM in the assay with H9c2 (setting [5]); 1.35 µM with H9c2 (setting [7]); 2.03 µM with H9c2 (setting [8]); > 79 µM in the assay on H9c2 (setting [9]). Moreover, the IC50 in the assay on H9c2 (setting [10]) is > 79 µM.
As for `CCOC(=O)c1cccc(NC(=O)CNC(=O)c2cc(-c3cc(OC)c(OC)c(OC)c3)nc3ccc(OC)cc23)c1`, the concentration for half-maximal inhibition (IC50) in the assay on HL-1 (setting [1]) was determined as 2.3 µM; with HL-1 (setting [2]) it was 1.59 µM; with HL-1 (setting [3]) it was 1.73 µM; with HL-1 (setting [4]), 2.93 µM; in the assay with HL-1 (setting [5]) it was 2.94 µM; in the assay on HL-1 (setting [6]) it was 3.57 µM. Moreover, the IC50 was 3.75 µM in the assay on HL-1 (setting [7]); 3.81 µM in the assay with HL-1 (setting [8]); 2.62 µM with HL-1 (setting [9]); 4.12 µM with HL-1 (setting [10]); 3.16 µM with H9c2 (setting [1]); 4.42 µM in the assay with H9c2 (setting [2]). Moreover, the IC50 was 4.8 µM in the assay with H9c2 (setting [3]); 1.68 µM with H9c2 (setting [4]); 1.75 µM in the assay with H9c2 (setting [5]); 0.739 µM with H9c2 (setting [6]); 0.965 µM in the assay on H9c2 (setting [7]); 0.974 µM in the assay with H9c2 (setting [8]). In addition, the IC50 in the assay on H9c2 (setting [9]) came to 0.483 µM; with H9c2 (setting [10]) it was 0.534 µM.
In the case of `COc1cc(-c2cc(C(=O)NCC(=O)Nc3cccc(C(C)=O)c3)c3cccc(Cl)c3n2)cc(OC)c1OC`, the IC50 was 6.58 µM with HL-1 (setting [1]); 5.45 µM in the assay on HL-1 (setting [2]); 9.03 µM in the assay on HL-1 (setting [3]); 5.38 µM in the assay with HL-1 (setting [4]); 6.47 µM in the assay on HL-1 (setting [5]); > 79 µM with HL-1 (setting [7]). Also, the IC50 with HL-1 (setting [8]) is > 79 µM; with HL-1 (setting [9]), 4.06 µM; in the assay on HL-1 (setting [10]) it was 6.82 µM; in the assay on H9c2 (setting [2]) it was > 79 µM; in the assay with H9c2 (setting [3]), 32.2 µM; with H9c2 (setting [4]) it was 7.32 µM. In addition, the IC50 in the assay with H9c2 (setting [5]) worked out at 8.12 µM; in the assay on H9c2 (setting [6]), 0.651 µM; in the assay with H9c2 (setting [7]) it was 2.72 µM; in the assay with H9c2 (setting [8]), 3.44 µM; with H9c2 (setting [9]), 2.56 µM; in the assay with H9c2 (setting [10]), 3.46 µM.
As to `COc1ccc2nc(-c3cc(OC)c(OC)c(OC)c3)cc(C(=O)NCC(=O)Nc3cccc(C(C)=O)c3)c2c1`, the IC50 with HL-1 (setting [1]) worked out at 2.9 µM; in the assay on HL-1 (setting [2]), 1.27 µM; with HL-1 (setting [3]), 3.22 µM; with HL-1 (setting [4]), 3.47 µM; with HL-1 (setting [5]), 3.64 µM; in the assay on HL-1 (setting [6]), 5.12 µM. In addition, the IC50 is 4.48 µM in the assay on HL-1 (setting [7]); 6.94 µM in the assay with HL-1 (setting [8]); 4.08 µM with HL-1 (setting [9]); 5 µM with HL-1 (setting [10]); 2.63 µM with H9c2 (setting [1]); 3.05 µM with H9c2 (setting [2]). Also, the IC50 is 3.53 µM in the assay with H9c2 (setting [3]); 1.89 µM in the assay on H9c2 (setting [4]); 2.03 µM with H9c2 (setting [5]); 0.761 µM in the assay with H9c2 (setting [7]); 0.868 µM with H9c2 (setting [8]); > 79 µM with H9c2 (setting [9]). In the assay with H9c2 (setting [10]), the IC50 was 0.324 µM.
In the case of `COc1ccc2nc(-c3cc(OC)c(OC)c(OC)c3)cc(C(=O)NCC(=O)Nc3ccc(C(C)=O)cc3)c2c1`, the IC50 was 4.33 µM with HL-1 (setting [1]); 2.44 µM with HL-1 (setting [2]); 3 µM in the assay on HL-1 (setting [3]); 4.63 µM in the assay with HL-1 (setting [4]); 7.24 µM with HL-1 (setting [5]); 5.81 µM in the assay with HL-1 (setting [6]). For the same molecule, the 50% inhibitory concentration (IC50) came to 6.12 µM in the assay with HL-1 (setting [7]); 7.42 µM with HL-1 (setting [8]); 4.42 µM with HL-1 (setting [9]); 5.28 µM in the assay with HL-1 (setting [10]); 5.3 µM in the assay with H9c2 (setting [1]); 6.66 µM in the assay on H9c2 (setting [2]). Further, the concentration for half-maximal inhibition (IC50) was 7.3 µM in the assay with H9c2 (setting [3]); 3.59 µM in the assay with H9c2 (setting [4]); 3.65 µM in the assay with H9c2 (setting [5]); 1.52 µM in the assay with H9c2 (setting [6]); 1.96 µM in the assay on H9c2 (setting [7]); 1.99 µM with H9c2 (setting [8]). In addition, the half-inhibitory concentration (IC50) is 0.928 µM in the assay with H9c2 (setting [9]) and 1.23 µM in the assay with H9c2 (setting [10]).
Turning to `COc1cc(-c2cc(C(=O)Nc3cccc(C(=O)N4CCOCC4)c3)c3ccccc3n2)cc(OC)c1OC`, the IC50 with HL-1 (setting [1]) is 19 µM; in the assay on HL-1 (setting [2]) it was 8.16 µM; in the assay on HL-1 (setting [3]), 11.2 µM; in the assay with HL-1 (setting [4]) it was 27.8 µM; in the assay with HL-1 (setting [5]), 28.6 µM; in the assay with HL-1 (setting [6]) it was 14.7 µM. Moreover, the IC50 was 12.9 µM in the assay with HL-1 (setting [7]); 16.7 µM in the assay on HL-1 (setting [8]); 10.7 µM in the assay with HL-1 (setting [9]); 18.4 µM with HL-1 (setting [10]); > 79 µM in the assay on H9c2 (setting [2]); 60.5 µM in the assay with H9c2 (setting [3]). Moreover, the IC50 in the assay on H9c2 (setting [4]) is > 79 µM; in the assay on H9c2 (setting [5]) it was > 79 µM; in the assay with H9c2 (setting [6]) it was 5.92 µM; in the assay with H9c2 (setting [7]) it was 6.19 µM; with H9c2 (setting [8]), 7.7 µM; in the assay on H9c2 (setting [9]), 4.73 µM. For the same molecule, in the assay with H9c2 (setting [10]), the IC50 came to 5.07 µM.

A word on the IC50: it is the point on the concentration scale where inhibition reaches its midpoint. Low values mean higher potency, high ones lower potency.
